Test results reported in patent publication US20070287630A1, “Moisturizing agent with nutrients” (DriWater, Inc., priority 2006, published 2007).

Settings: acetic acid acting as a preservative in the gel

Q: With `CC(=O)O` [acetic acid] as the compound, how does the “effect on gel degradation in soil” value read?
A: The value was “slow gel degradion in soil”.
